Results as given in patent publication US7129351B2, “Pyrimido compounds having antiproliferative activity” (Hoffmann-La Roche Inc., priority 2002, dated 2006).
Like-named read-outs stand apart in the source and are kept apart here.

Key:
Src (p60^c-src) = target: T1, Src (p60^c-src) (Homo sapiens, UniProt P12931); assay: SRC-Inhibitor-Assay (homogenous time-resolved fluorescence kinase assay); assay type: biochemical
T1 construct: purchased Upstate (UBI)
Procedure: The activity of the compounds according to this invention as inhibitors for the src-family tyrosine kinases was shown by using the following assay.
SRC-Inhibitor-Assay Parameters:
whereby both peptides were synthesized by an optimized solid phase peptide synthesis protocol (Merrifield (1962) Fed. Proc. Fed. Amer. Soc Exp. Biol. 21, 412) on an Zinsser SMP350 peptide synthesizer. Shortly, the peptide was assembled on 160 mg (22.8 μmol scale) of a Rink-Linker modified polystyrene solid phase by repeatedly conjugating a twenty fold excess of aminoacids each protected by temporary piperidine labile Fmoc- and permanent acid labile tert-Bu-, BOC- and O-tert-Bu-groups depending on the side chain function. The substrate sequence AEEEIYGEFEAKKKK was N-terminal additionally mounted with the spacer amino acids Aminocaprylic acid and Glycin. After cleavage of the N-terminal temporary protecting group the still attached and protected peptide was labeled with a 1.5 fold amount of LightCycler-Red 640-N-hydroxy succinimide ester (purchased from Roche Diagnostics GmbH) and triethylamine. After 3 hrs. the resin was washed with dimethylformamide and isopropanol until the eluates of the blue resin got colourless. […] The substrate was finally isolated by a preparative reverse phase HPLC purification. The purification yielded 12.2 mg RP-HPLC single peak pure blue material (lyophilisate). The identity was proven by MALDI mass spectroscopy [2720.0]. • Enzymes: Upstate Lck (p56^lck, active), Upstate Src (p60^c-src, partially purified) were purchased from UBI. • Homogenous, time-resolved Fluorescence Assay: Reader: Perkin Elmer, Wallac Viktor 1420-040 multilabel counter; Liquid handling system: Beckman Coulter, Biomek 2000. • ATP, Tween 20, HEPES were purchased from Roche Molecular Biochemicals, MgCl2 and MnCl2 were purchased from Merck Eurolab, TCEP was purchased from Pierce, 384 Well low volume fluorescence plates was purchased from Falcon. Assay Description:
At first the enzyme is pre-incubated for 15 min. at 15° C. in aqueous solution with corresponding amounts of inhibitors according to this invention. Then the phosphorylation reaction is started by adding a reaction mixture, containing ATP, Peptide and PT66, and subsequent shaking. The proceeding of this reaction is immediately monitored using time resolved fluorescence spectroscopy in a suitable well plate reader.
The IC50-values can be obtained from the reaction rates by using a non-linear curve fit (Excelfit).

[1] = ATP 5 μM, enzyme 2.5 U/mL, pre-incubated 15 min at 15° C., read-out: IC50 (μM) - Enzyme Inhibition Assay, Src

T1 sequence (P12931 whole entry): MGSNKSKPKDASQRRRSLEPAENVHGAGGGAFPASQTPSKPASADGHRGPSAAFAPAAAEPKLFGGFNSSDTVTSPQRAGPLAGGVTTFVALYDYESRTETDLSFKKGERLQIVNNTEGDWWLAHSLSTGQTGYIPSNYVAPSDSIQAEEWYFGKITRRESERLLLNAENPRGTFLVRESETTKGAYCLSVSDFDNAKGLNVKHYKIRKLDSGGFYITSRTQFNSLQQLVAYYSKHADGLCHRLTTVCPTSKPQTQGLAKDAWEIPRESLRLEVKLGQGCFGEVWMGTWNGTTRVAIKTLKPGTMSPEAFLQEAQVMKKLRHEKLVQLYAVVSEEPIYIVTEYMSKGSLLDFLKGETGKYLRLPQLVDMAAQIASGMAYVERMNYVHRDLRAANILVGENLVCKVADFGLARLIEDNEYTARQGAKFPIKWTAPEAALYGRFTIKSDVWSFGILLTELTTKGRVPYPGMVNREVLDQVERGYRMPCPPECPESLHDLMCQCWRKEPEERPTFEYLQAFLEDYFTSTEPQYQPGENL

| Compound | IC50 (Src (p60^c-src); [1]) | melting point | IC50 (Src (p60^c-src); printed at the end of the Example 8 characterisation data, kinase not named at that place, read-out: IC50) |
| --- | --- | --- | --- |
| CCN(CC)CCc1cccc(Nc2ncc3c(n2)N(c2cccc(C#N)c2)C(=O)N(c2ccc(OC)cc2)C3C)c1 (racemic) [Example 5b, (±)-3-[7-[3-(2-diethylamino-ethyl)-phenylamino]-3-(4-methoxy-phenyl)-4-methyl-2-oxo-3,4-dihydro-2H-pyrimido[4,5-d]pyrimidin-1-yl]-benzonitrile] | < 1 µM | 128 to 145 °C |  |
| CCN(CC)CCc1cccc(Nc2ncc3c(n2)N(c2cccc(C(N)=O)c2)C(=O)N(c2ccc(OC)cc2)C3C)c1 (racemic) [Example 8, (±)-3-[7-[3-(2-diethylamino-ethyl)-phenylamino]-3-(4-methoxy-phenyl)-4-methyl-2-oxo-3,4-dihydro-2H-pyrimido[4,5-d]pyrimidin-1-yl]-benzamide] | < 1 µM | 170 to 175 °C | 0.0045 µM |
| COc1ccc(N2C(=O)N(c3cccc(C(N)=O)c3)c3nc(Nc4cccc(CCN(C)C)c4)ncc3C2C)cc1 (racemic) [Example 9, (±)-3-[7-[3-(2-dimethylamino-ethyl)-phenylamino]-3-(4-methoxy-phenyl)-4-methyl-2-oxo-3,4-dihydro-2H-pyrimido[4,5-d]pyrimidin-1-yl]-benzamide] | < 1 µM | 215 to 230 °C |  |

Second part, the compound after the results:

| IC50 (Src (p60^c-src); [1]) | melting point | IC50 (Src (p60^c-src); printed at the end of the Example 8 characterisation data, kinase not named at that place, read-out: IC50) | Compound |
| --- | --- | --- | --- |
| < 1 µM | 195 to 200 °C |  | COc1ccc(N2C(=O)N(c3cccc(C#N)c3)c3nc(Nc4cccc(CCO)c4)ncc3C2C)cc1 (racemic) [Example 4, (±)-3-[7-[3-(2-hydroxy-ethyl)-phenylamino]-3-(4-methoxy-phenyl)-4-methyl-2-oxo-3,4-dihydro-2H-pyrimido[4,5-d]pyrimidin-1-yl]-benzonitrile] |
| < 1 µM | 120 to 135 °C |  | COc1ccc(N2C(=O)N(c3cccc(C#N)c3)c3nc(Nc4cccc(CCN(C)C)c4)ncc3C2C)cc1 (racemic) [Example 6, (±)-3-[7-[3-(2-dimethylamino-ethyl)-phenylamino]-3-(4-methoxy-phenyl)-4-methyl-2-oxo-3,4-dihydro-2H-pyrimido[4,5-d]pyrimidin-1-yl]-benzonitrile] |
| < 1 µM | 134 to 155 °C |  | COc1ccc(N2C(=O)N(c3cccc(C#N)c3)c3nc(Nc4cccc(CCN5CCN(C)CC5)c4)ncc3C2C)cc1 (racemic) [Example 7, (±)-3-(3-(4-methoxy-phenyl)-4-methyl-7-{3-[2-(4-methyl-piperazin-1-yl)-ethyl]-phenylamino}-2-oxo-3,4-dihydro-2H-pyrimido[4,5-d]pyrimidin-1-yl)-benzonitrile] |
| < 1 µM | 243 to 251 °C |  | COc1ccc(N2C(=O)N(c3cccc(C(N)=O)c3)c3nc(Nc4cccc(CCN5CCN(C)CC5)c4)ncc3C2C)cc1 (racemic) [Example 10, (±)-3-(3-(4-methoxy-phenyl)-4-methyl-7-{3-[2-(4-methyl-piperazin-1-yl)-ethyl]-phenylamino}-2-oxo-3,4-dihydro-2H-pyrimido[4,5-d]pyrimidin-1-yl)-benzamide] |
